We go through 30 molecules from patent US11351178B2, “Selective HDAC6 inhibitors” (ITALFARMACO S.P.A., priority 2017, dated 2022).

Each structure is given as a SMILES string.

The target in this assay is T1, recombinant human HDAC6 (Homo sapiens, UniProt Q9UBN7).
T1 sequence (Q9UBN7 1-1215): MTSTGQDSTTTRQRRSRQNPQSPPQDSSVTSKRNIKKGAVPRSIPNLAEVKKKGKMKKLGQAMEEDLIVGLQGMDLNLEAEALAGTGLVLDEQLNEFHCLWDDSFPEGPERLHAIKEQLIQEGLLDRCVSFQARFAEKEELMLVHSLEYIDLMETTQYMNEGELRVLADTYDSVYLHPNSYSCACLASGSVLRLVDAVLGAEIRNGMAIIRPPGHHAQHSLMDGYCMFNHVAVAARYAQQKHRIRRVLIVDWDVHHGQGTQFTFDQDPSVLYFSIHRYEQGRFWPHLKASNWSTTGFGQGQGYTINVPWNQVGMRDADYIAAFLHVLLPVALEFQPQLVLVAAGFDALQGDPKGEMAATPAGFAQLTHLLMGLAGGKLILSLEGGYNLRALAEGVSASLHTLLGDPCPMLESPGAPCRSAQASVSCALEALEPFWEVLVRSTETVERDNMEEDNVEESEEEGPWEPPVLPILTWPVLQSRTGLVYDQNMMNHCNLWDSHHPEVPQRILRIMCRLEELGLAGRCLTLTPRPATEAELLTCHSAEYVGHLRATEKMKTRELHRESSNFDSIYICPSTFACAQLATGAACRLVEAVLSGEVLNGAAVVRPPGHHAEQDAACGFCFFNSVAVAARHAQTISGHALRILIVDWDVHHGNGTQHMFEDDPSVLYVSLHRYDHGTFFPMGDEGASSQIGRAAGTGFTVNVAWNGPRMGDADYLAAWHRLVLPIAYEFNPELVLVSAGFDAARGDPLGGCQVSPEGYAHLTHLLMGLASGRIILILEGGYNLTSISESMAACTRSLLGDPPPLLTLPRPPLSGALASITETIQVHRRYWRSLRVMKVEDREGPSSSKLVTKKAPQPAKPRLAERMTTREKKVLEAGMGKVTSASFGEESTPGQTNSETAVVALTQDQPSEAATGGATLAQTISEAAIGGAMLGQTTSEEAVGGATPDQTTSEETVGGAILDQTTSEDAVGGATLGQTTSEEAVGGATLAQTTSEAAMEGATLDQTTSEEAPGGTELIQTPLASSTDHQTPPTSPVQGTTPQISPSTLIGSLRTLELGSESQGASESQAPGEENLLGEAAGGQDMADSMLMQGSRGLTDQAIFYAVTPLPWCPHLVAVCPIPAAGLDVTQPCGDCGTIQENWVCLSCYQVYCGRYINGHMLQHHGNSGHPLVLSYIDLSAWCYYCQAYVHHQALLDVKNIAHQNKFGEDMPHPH
Briefly: Enzymatic screening on recombinant human HDAC6. The class given is biochemical. The conditions noted are these: Table 2; read-out: HDAC6 IC50. The protocol: Enzymatic activity on recombinant human HDAC6 and HDAC3 was evaluated (Table 2) for each synthesized compound.
After a period of incubation at 30° C. (incubation times vary for different isoforms and are shown in table 1) 25 μL of solution containing the substrate were added. As substrate, FLUOR DE LYS® deacetylase substrate (Enzo Life Sciences, cat #BML-K1104, FdL), FLUOR DE LYS®-Green substrate (Enzo Life Sciences, cat #BML-K1572 FdL_G) and trifluoroacetyl-L-lysine (Tfal)-2× concentrated solution in 25 mM Tris-HCl, pH 8, 130 mM NaCl 0.05% Tween-20 10% glycerol) were used. Following a reaction period at 30° C.
`O=C(NO)c1ccc(Cn2nnc(-c3ccc(F)cc3)n2)cc1` [comp. 34, 4-[[5-(4-fluorophenyl)tetrazol-2-yl]methyl]benzenecarbohydroxamic acid]: the IC50 (usually the concentration that inhibits the measured activity by half) came out at 7 nM.
Regarding `O=C(NO)c1cc(F)c(Cn2nnc(-c3ccc(C(F)(F)F)cn3)n2)c(F)c1` [comp. 128, 3,5-difluoro-4-[[5-[5-(trifluoromethyl)-2-pyridyl]tetrazol-2-yl]methyl]benzenecarbohydroxamic acid], the IC50 was 45 nM.
In the case of `O=C(NO)c1ccc(Cn2nnnc2-c2ccco2)cc1` [comp. 86, 4-[[5-(2-furyl)tetrazol-1-yl]methyl]benzenecarbohydroxamic acid] it was 39 nM; in that of `O=C(NO)c1ccc(Cc2nc(-c3ccc(Cl)cc3)nn2Cc2ccccc2)cc1` [comp. 51, 4-[[2-benzyl-5-(4-chlorophenyl)-1,2,4-triazol-3-yl]methyl]benzenecarbohydroxamic acid], 368 nM.
In the case of `N[C@@H](Cc1cscn1)c1nc(Cc2ccc(C(=O)NO)cc2)no1` [comp. 48, (S)-4-((5-(1-amino-2-(thiazol-4-yl)ethyl)-1,2,4-oxadiazol-3-yl)methyl)-N-hydroxybenzamide 2,2,2-trifluoroacetate] it was 257 nM.
Then `COc1ccccc1-n1nc(-c2cccs2)nc1Cc1ccc(C(=O)NO)cc1` [comp. 53, 4-[[2-(2-methoxyphenyl)-5-(2-thienyl)-1,2,4-triazol-3-yl]methyl]benzenecarbohydroxamic acid], with 333 nM.
Regarding `O=C(NO)c1cc(F)c(Sc2nnc(-c3ccco3)n2Cc2ccccc2)c(F)c1` [comp. 142, 4-[[4-benzyl-5-(2-furyl)-1,2,4-triazol-3-yl]sulfanyl]-3,5-difluoro-benzenecarbohydroxamic acid], the IC50 is 20 nM.
For the molecule `Cn1c(Sc2c(F)cc(C(=O)NO)cc2F)nnc1-c1scc2c1OCCO2` [comp. 118, 4-[[5-(2,3-dihydrothieno[3,4-b][1,4]dioxin-5-yl)-4-methyl-1,2,4-triazol-3-yl]sulfanyl]-3,5-difluoro-benzenecarbohydroxamic acid], the IC50 came out at 6 nM.
Then `O=C(NO)c1ccc(Cn2nnnc2-c2ccc(S(F)(F)(F)(F)F)cc2)cc1` [comp. 111, 4-[[5-[4-(pentafluoro-lambda6-sulfanyl)phenyl]tetrazol-1-yl]methyl]benzenecarbohydroxamic acid], with 271 nM; and `O=C(NO)c1ccc(Cn2nnc(-c3scc4c3OCCO4)n2)cc1` [comp. 43, 4-[[5-(2,3-dihydrothieno[3,4-b][1,4]dioxin-5-yl)tetrazol-2-yl]methyl]benzenecarbohydroxamic acid], with 3 nM; and `O=C(NO)c1ccc(Nc2nnc(-c3ccccc3)o2)cc1` [comp. 60, 4-[(5-phenyl-1,3,4-oxadiazol-2-yl)amino]benzenecarbohydroxamic acid], with 136 nM.
In the case of `O=C(NO)c1ccc(Cn2nnnc2-c2ncccn2)cc1` [comp. 124, 4-[(5-pyrimidin-2-yltetrazol-1-yl)methyl]benzenecarbohydroxamic acid] it was 72 nM.
In the case of `O=C(NO)c1cc(F)c(Sc2nnc(-c3cccs3)n2Cc2ccco2)c(F)c1` [comp. 144, 3,5-difluoro-4-[[4-(2-furylmethyl)-5-(2-thienyl)-1,2,4-triazol-3-yl]sulfanyl]benzenecarbohydroxamic acid] it was 12 nM; in that of `O=C(NO)c1ccc(Cc2nc(-c3cccs3)nn2-c2ccccn2)cc1` [comp. 52, 4-[[2-(2-pyridyl)-5-(2-thienyl)-1,2,4-triazol-3-yl]methyl]benzenecarbohydroxamic acid], 344 nM.
Take `O=C(NO)c1cc(F)c(Cn2nnc(-c3cccc(S(F)(F)(F)(F)F)c3)n2)c(F)c1` [comp. 108, 3,5-difluoro-4-[[5-[3-(pentafluoro-lambda6-sulfanyl)phenyl]tetrazol-2-yl]methyl]benzenecarbohydroxamic acid]: the half-inhibitory concentration (IC50) came out at 108 nM.
As to `O=C(NO)c1ccc(Cn2nnc(-c3ccc4ccccc4n3)n2)cc1` [comp. 90, 4-[[5-(2-quinolyl)tetrazol-2-yl]methyl]benzenecarbohydroxamic acid], the IC50 was 20 nM.
Consider `Cn1c(Sc2c(F)cc(C(=O)NO)cc2F)nnc1-c1cc(-c2cccs2)n(-c2ccccc2)n1` [comp. 136, 3,5-difluoro-4-[[4-methyl-5-[1-phenyl-5-(2-thienyl)pyrazol-3-yl]-1,2,4-triazol-3-yl]sulfanyl]benzenecarbohydroxamic acid], for which the IC50 was 40 nM.
Then `O=C(NO)c1ccc(Cn2nnc(-c3ncc(C(F)(F)F)cc3N3CCOCC3)n2)cc1` [comp. 130, 4-[[5-[3-morpholino-5-(trifluoromethyl)-2-pyridyl]tetrazol-2-yl]methyl]benzenecarbohydroxamic acid], with 837 nM; and `COc1ccc(-c2nnn(Cc3ccc(C(=O)NO)cc3)n2)cc1` [comp. 35, 4-[[5-(4-methoxyphenyl)tetrazol-2-yl]methyl]benzenecarbohydroxamic acid], with 5 nM; and `O=C(NO)c1ccc(Cn2nnnc2-c2cccc(S(F)(F)(F)(F)F)c2)cc1` [comp. 107, 4-[[5-[3-(pentafluoro-lambda6-sulfanyl)phenyl]tetrazol-1-yl]methyl]benzenecarbohydroxamic acid], with 162 nM.
In the case of `Cc1ccc(-c2nnn(Cc3ccc(C(=O)NO)cc3)n2)s1` [comp. 41, 4-[[5-(5-methyl-2-thienyl)tetrazol-2-yl]methyl]benzenecarbohydroxamic acid] it was 4 nM.
On to `O=C(NO)c1cc(F)c(Sc2nnc(-c3cccs3)[nH]2)c(F)c1` [comp. 97, 3,5-difluoro-4-[[5-(2-thienyl)-4H-1,2,4-triazol-3-yl]sulfanyl]benzenecarbohydroxamic acid], for which the IC50 was 51 nM.
Turning to `Cn1c(Sc2c(F)cc(C(=O)NO)cc2F)nnc1-c1ccc(CN2CCCC2)o1` [comp. 207, 3,5-difluoro-4-[[4-methyl-5-[5-(pyrrolidin-1-ylmethyl)-2-furyl]-1,2,4-triazol-3-yl]sulfanyl]benzenecarbohydroxamic acid], the IC50 was found to be 7 nM.
Then `O=C(NO)c1ccc(Cc2nnc(-c3cccc(S(=O)(=O)N4CCOCC4)c3)o2)cc1` [comp. 64, 4-[[5-(3-morpholinosulfonylphenyl)-1,3,4-oxadiazol-2-yl]methyl]benzenecarbohydroxamic acid], with 13 nM; and `O=C(NO)c1ccc(Sc2nnc(Cc3ccccc3)n2-c2ccc(F)cc2)cc1` [comp. 27, 4-[[5-benzyl-4-(4-fluorophenyl)-1,2,4-triazol-3-yl]sulfanyl]benzenecarbohydroxamic acid;2,2,2-trifluoroacetic acid], with 77 nM.
Then `O=C(NO)c1ccc(Sc2nc(C3CC3)n(-c3ccccc3)n2)cc1` [comp. 72, 4-[(5-cyclopropyl-1-phenyl-1,2,4-triazol-3-yl)sulfanyl]benzenecarbohydroxamic acid], with 162 nM; and `Cn1c(Sc2c(F)cc(C(=O)NO)cc2F)nnc1-c1cc2ccccc2cn1` [comp. 148, 3,5-difluoro-4-[[5-(3-isoquinolyl)-4-methyl-1,2,4-triazol-3-yl]sulfanyl]benzenecarbohydroxamic acid], with 6 nM; and `O=C(NO)c1ccc(Cn2nnc(-c3ccc(Cl)s3)n2)cc1` [comp. 32, 4-[[5-(5-chloro-2-thienyl)tetrazol-2-yl]methyl]benzenecarbohydroxamic acid], with 6 nM.
In the case of `CN(C)c1ccc(-c2nnc(Sc3ccc(C(=O)NO)cc3)n2C)cc1` [comp. 73, 4-[[5-[4-(dimethylamino)phenyl]-4-methyl-1,2,4-triazol-3-yl]sulfanyl]benzenecarbohydroxamic acid], the IC50 was found to be 8 nM.
As to `O=C(NO)c1ccc(Cn2nnnc2-c2nccc3ccccc23)cc1` [comp. 88, 4-[[5-(1-isoquinolyl)tetrazol-1-yl]methyl]benzenecarbohydroxamic acid], the IC50 amounted to 2 nM.
